From patent EP1056700B1, “MEDICINAL USES OF PHENYLALKANOLS AND DERIVATES” (ZingoTX Pty Ltd, priority 1997, dated 1999)
Entries after “also recorded” stand apart in the source; their conditions may differ.

Columns and labels:
right atrium guinea pig = assay: Cardiovascular and neuro-effector junction activities: right atrium, guinea pig; conditions: for right atrium guinea pig: result in words with concentration
Source text: (§1) The cardiotonic action of 1-(4-hydroxy-3-methoxyphenyl)dodecan-3-ol [3.93] was confirmed from independent studies, carried out at our request as part of our agreement with Johnson & Johnson Research Ltd (J&J), by Prof. James Angus from the University of Melbourne. […] A tachycardial effect of the substance on guinea pig atria was, however, observed at significant rate, 50-60% of isoprenaline Emax and the response was not α- or β-adrenoceptor mediated. […] Cardiovascular and neuro-effector junction activities of gingerol analogues

left atrium rat = assay: Cardiovascular and neuro-effector junction activities: left atrium, rat; conditions: result in words with concentration
Source text: as §1

[1] = tested on: brine shrimp (Artemia salina Leach); assay: Brine shrimp toxicity bioassay; format: in vivo; conditions: result in words
[2] = Acute toxicity in mice for 3 days; format: in vivo
Source text: However, no toxicity was shown towards mice for dose by the oral route. […] Brine shrimp toxicity for gingerols and gingerol analogues tested ranged from low to moderate.

left atrium guinea pig = assay: Cardiovascular and neuro-effector junction activities: left atrium, guinea pig; conditions: for left atrium guinea pig: result in words with concentration
Source text: as §1

5-lipoxygenase = target: T1, 5-lipoxygenase (Rattus norvegicus, UniProt P12527); assay: 5-lipoxygenase assay (MDS PANLABS), RBL-1 cells, 5-HETE radioimmunoassay; format: biochemical; conditions: arachidonic acid as substrate
T1 construct: 5-lipoxygenase activity from rat basophilic leukemia cells (RBL-1); host or cells: RBL-1 (rat basophilic leukemia)
Method: 3-hydroxy-1-(4-hydroxy-3-methoxyphenyl)dodecane [3.93] was tested at MDS PANLABS: Pharmacology Services (Taiwan) for 5-lipoxygenase activity from rat basophilic leukemia cells (RBL-1) with arachidonic acid as substrate. The inhibitory activity of the substance was quantitated, using radioimmunoassay, from the formation of 5-HETE. At 10 µM, the substance gave approximate 90% inhibition of 5-lipoxygenase activity.

NK-1 receptor = target: T2, NK-1 receptor (Cavia porcellus, UniProt P30547); assay: Neurokinin-1 binding with [^3H]Substance P on guinea pig submaxillary membrane
T2 construct: tested on guinea pig submaxillary membrane; from tissue; host or cells: guinea pig submaxillary membrane
Method: 3-hydroxy-1-(4-hydroxy-3-methoxyphenyl)dodecane [3.93], was tested on guinea pig submaxillary membrane for neurokinin-1 (NK-1) antagonist activity with tritium labelled [^3H]Substance P and found to have relatively potent inhibition of the binding of Substance P to NK-1 receptor. […] It gave approximately 80% inhibition at 30 µM.

diaphragm rat = assay: Cardiovascular and neuro-effector junction activities: diaphragm, rat
Source text: as §1

right atrium rat = assay: Cardiovascular and neuro-effector junction activities: right atrium, rat; conditions: result in words with concentration
Source text: as §1

Bleeding time in mice = format: in vivo
[3] = tested on: rabbit platelet-rich plasma; assay: Antiplatelet aggregation screen with arachidonic acid in rabbit platelet-rich plasma; format: cell-based
cardiac Purkinje fibres = assay: Cardiac electrophysiology on Purkinje fibres; parameters: species or system dog; conditions: for effect on rate of depolarization, amplitude of action potential and duration of action potential at 50% and 90% repolarization: up to 10 µM
Method: The basic cardiac electrophysiological properties were assessed using cardiac Purkinje fibres obtained from adult mongrel dogs.
Electrophysiology was carried out on dog heart purkinje fibre to test for potential arrhythmia. […] At high concentration (50 µM), however, [8]-gingerol reduced approximate 80% and 50% of action potential duration at 50% and 90% repolarisations respectively. Whereas the analogue reduced 75% and 30% respectively.

[4] = dogs, 0.3 mg / kg, i.v.; cited from earlier work

T1 sequence (P12527 whole entry): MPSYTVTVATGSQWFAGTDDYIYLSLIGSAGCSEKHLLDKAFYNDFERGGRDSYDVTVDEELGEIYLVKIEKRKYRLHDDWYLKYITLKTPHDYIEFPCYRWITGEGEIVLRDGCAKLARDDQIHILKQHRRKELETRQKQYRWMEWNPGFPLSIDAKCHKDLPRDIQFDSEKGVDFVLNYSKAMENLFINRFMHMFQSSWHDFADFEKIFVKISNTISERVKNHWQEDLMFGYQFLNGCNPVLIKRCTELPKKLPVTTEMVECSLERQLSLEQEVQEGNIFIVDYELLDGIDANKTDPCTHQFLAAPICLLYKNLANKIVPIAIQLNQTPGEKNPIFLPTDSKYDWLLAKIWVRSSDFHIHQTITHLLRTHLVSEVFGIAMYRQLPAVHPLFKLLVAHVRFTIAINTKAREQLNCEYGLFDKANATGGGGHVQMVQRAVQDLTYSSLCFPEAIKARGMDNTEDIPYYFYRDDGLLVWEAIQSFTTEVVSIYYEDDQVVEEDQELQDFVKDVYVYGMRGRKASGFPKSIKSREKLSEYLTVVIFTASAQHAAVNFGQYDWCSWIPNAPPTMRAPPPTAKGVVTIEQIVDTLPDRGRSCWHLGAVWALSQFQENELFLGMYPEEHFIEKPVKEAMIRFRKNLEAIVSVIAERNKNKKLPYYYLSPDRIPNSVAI
T2 sequence (P30547 whole entry): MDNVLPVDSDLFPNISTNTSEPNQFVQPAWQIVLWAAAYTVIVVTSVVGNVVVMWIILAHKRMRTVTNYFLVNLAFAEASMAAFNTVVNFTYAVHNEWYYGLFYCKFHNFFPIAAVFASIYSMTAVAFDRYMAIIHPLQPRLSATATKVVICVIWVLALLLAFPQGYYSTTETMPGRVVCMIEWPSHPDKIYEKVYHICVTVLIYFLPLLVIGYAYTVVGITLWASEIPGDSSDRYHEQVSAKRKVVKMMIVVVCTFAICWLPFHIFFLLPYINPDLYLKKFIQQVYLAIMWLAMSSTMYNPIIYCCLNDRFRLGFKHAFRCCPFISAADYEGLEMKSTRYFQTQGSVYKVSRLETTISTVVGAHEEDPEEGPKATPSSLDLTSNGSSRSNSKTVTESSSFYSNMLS

SMILES | right atrium guinea pig (right atrium guinea pig) | left atrium rat (left atrium rat) | left atrium guinea pig (left atrium guinea pig) | right atrium rat (right atrium rat) | Action Potential Amplitude (cardiac Purkinje fibres; 5 µM) | Action Potential Duration 50% repolarisation (cardiac Purkinje fibres; 5 µM) | Action Potential Duration 90% repolarisation (cardiac Purkinje fibres; 5 µM) | Maximum rate of depolarisation (cardiac Purkinje fibres; 5 µM) | Action Potential Amplitude (cardiac Purkinje fibres; 10 µM) | Action Potential Duration 50% repolarisation (cardiac Purkinje fibres; 10 µM) | Action Potential Duration 90% repolarisation (cardiac Purkinje fibres; 10 µM) | Maximum rate of depolarisation (cardiac Purkinje fibres; 10 µM) | Action Potential Amplitude (cardiac Purkinje fibres; 20 µM) | Action Potential Duration 50% repolarisation (cardiac Purkinje fibres; 20 µM) | Action Potential Duration 90% repolarisation (cardiac Purkinje fibres; 20 µM) | Maximum rate of depolarisation (cardiac Purkinje fibres; 20 µM) | Action Potential Amplitude (cardiac Purkinje fibres; 30 µM) | Action Potential Duration 50% repolarisation (cardiac Purkinje fibres; 30 µM) | Action Potential Duration 90% repolarisation (cardiac Purkinje fibres; 30 µM) | Maximum rate of depolarisation (cardiac Purkinje fibres; 30 µM) | further results
CCCCCCCCCC(O)CCc1ccc(O)c(OC)c1 (stereo not shown) [1-(4-hydroxy-3-methoxyphenyl)dodecan-3-ol] | tachycardia 10^-7 - 3x10^-5 M | no change in force 10^-7 - 10^-5 M (n=2) | inotropic 10^-6 - 3x10^-5 M | tachycardi a 3x10^-7 - 3x10^-6 M (with propranolo 1 present) |  |  |  |  |  |  |  |  |  |  |  |  |  |  |  |  | Emax (right atrium guinea pig; Cavia porcellus, right atrium guinea pig, 10^-7 - 3x10^-5 M, not blocked by praz., prop., read-out: tachycardia, % of isoprenaline Emax): 50 to 60%; tachycardia, % of isoprenaline Emax (right atrium guinea pig; right atrium guinea pig, 10^-7 - 3x10^-5 M, not blocked by praz., prop.): 60%; toxicity towards brine shrimp [1]: low toxicity; Acute toxicity ([2]; mice, 3 days, intraperitoneal administration): slight decrease in spontaneous activity, response to touch and limb tone; Acute toxicity ([2]; mouse, in vivo, po): no toxicity; inotropic, % isopren. max. (left atrium guinea pig; left atrium guinea pig, 10^-6 - 3x10^-5 M (not in rat)): 20%; inhibition at 10 µM (5-lipoxygenase): ~90%; inhibition at 30 µM (NK-1 receptor): ~80%; diaphragm rat ↓ (diaphragm rat; 10^-5 M (vehicle?)): ↓10% 10^-5 M (vehicle?); effect on bleeding time (Bleeding time in mice): little or no effect; platelet function via adenosine diphosphate or thromboxane A2 mechanisms [3]: did not affect; antiplatelet aggregation activity compared with the indomethacin reference compound ([3]; arachidonic acid as substrate): three time more potent
CCCCCCCC(O)CC(=O)c1ccc(O)c(OC)c1 (stereo not shown) [3-hydroxy-1-(4-hydroxy-3-methoxyphenyl)decan-1-one] | no change basal rate 10^-7 - 10^-5 M | no change 10^-7 - 3x10^-5 M (sharp fall 10^-4 M) | • no inotropi sm | no change basal rate 10^-7 - 10^-5 M | 125±3 mV | 176 ± 17 ms | 270 ± 26 ms | 524±66 V/s | 127±4 mV | 157 ± 23 ms | 257 ± 25 ms | 527±78 V/s | 123±6 mV | 124 ± 16 ms | 245 ± 17 ms | 521±87 V/s | 115±7 mV | 94 ± 10 ms | 212 ± 21 ms | 423±45 V/s | effect on isoprenaline response, left atrium guinea pig (left atrium guinea pig; up to 30 µM): • no effect on isoprenali ne response (up to 30 µM); diaphragm rat ↓ (diaphragm rat; 3x10^-5 M): ↓10% 3x10^-5 M; diaphragm rat (diaphragm rat; result in words with concentration): no effect 10^-5 M; Action Potential Amplitude (cardiac Purkinje fibres; 40 µM): 117±7 mV; Action Potential Duration 50% repolarisation (cardiac Purkinje fibres; 40 µM): 81 ± 10 ms; Action Potential Duration 90% repolarisation (cardiac Purkinje fibres; 40 µM): 201 ± 13 ms; Maximum rate of depolarisation (cardiac Purkinje fibres; 40 µM): 442±61 V/s; Action Potential Amplitude (cardiac Purkinje fibres; 50 µM): 110±9 mV; Action Potential Duration 50% repolarisation (cardiac Purkinje fibres; 50 µM): 55 ± 4 ms; Action Potential Duration 90% repolarisation (cardiac Purkinje fibres; 50 µM): 188 ± 19 ms; Maximum rate of depolarisation (cardiac Purkinje fibres; 50 µM): 363±74 V/s; reduction of action potential duration at 50% repolarisation (cardiac Purkinje fibres; 50 µM): 75%; reduction of action potential duration at 90% repolarisation (cardiac Purkinje fibres; 50 µM): 30%; effect on rate of depolarization, amplitude of action potential and duration of action potential at 50% and 90% repolarization (cardiac Purkinje fibres; listed as 3.92): insignificant effect; also recorded: only a small effect
CCCCCCCC(O)CC(=O)CCc1ccc(O)c(OC)c1 (stereo not shown) [[8]-gingerol, 5-hydroxy-1-(4-hydroxy-3-methoxyphenyl)dodecan-3-one, reference compound] |  |  |  |  | 124±2 mV | 242 ± 20 ms | 363 ± 27 ms | 532±42 V/s | 120±4 mV | 207 ± 20 ms | 339 ± 26 ms | 483±41 V/s | 119±2 mV | 142 ± 20 ms | 285 ± 26 ms | 499±41 V/s | 114±3 mV | 107 ± 17 ms | 248 ± 25 ms | 443±45 V/s | duration of increased cardiac contractility [4]: 10 min; increased cardiac contractility [4]: about 30%; Action Potential Amplitude (cardiac Purkinje fibres; 40 µM): 116±4 mV; Action Potential Duration 50% repolarisation (cardiac Purkinje fibres; 40 µM): 88 ± 15 ms; Action Potential Duration 90% repolarisation (cardiac Purkinje fibres; 40 µM): 229 ± 22 ms; Maximum rate of depolarisation (cardiac Purkinje fibres; 40 µM): 516±67 V/s; Action Potential Amplitude (cardiac Purkinje fibres; 50 µM): 109±8 mV; Action Potential Duration 50% repolarisation (cardiac Purkinje fibres; 50 µM): 76 ± 12 ms; Action Potential Duration 90% repolarisation (cardiac Purkinje fibres; 50 µM): 221 ± 19 ms; Maximum rate of depolarisation (cardiac Purkinje fibres; 50 µM): 471±73 V/s; reduction of action potential duration at 50% repolarisation (cardiac Purkinje fibres; 50 µM): ~80%; reduction of action potential duration at 90% repolarisation (cardiac Purkinje fibres; 50 µM): ~50%; effect on rate of depolarization, amplitude of action potential and duration of action potential at 50% and 90% repolarization (cardiac Purkinje fibres): insignificant effect
